From ChEMBL document CHEMBL1275550, “In vitro activity of doripenem, a carbapenem for the treatment of challenging infections caused by gram-negative bacteria, against recent clinical isolates from the United States” (2008)
Converted amounts (≈) assume the structure as drawn.

Assays:
Enterobacteriaceae [1] = test: Antimicrobial activity against ceftazidime-susceptible Enterobacteriaceae by broth microdilution method; assay type: functional
Enterobacteriaceae [2] = test: Antimicrobial activity against Ceftazidime non-susceptible Enterobacteriaceae by broth microdilution method; assay type: functional
Enterobacteriaceae [3] = test: Antimicrobial activity against ceftazidime-susceptible Enterobacteriaceae assessed as intermediate isolate by broth microdilution method; assay type: functional
Enterobacteriaceae [4] = test: Antimicrobial activity against ceftazidime-susceptible Enterobacteriaceae assessed as resistant isolate by broth microdilution method; assay type: functional
Enterobacteriaceae [5] = test: Antimicrobial activity against Ceftazidime non-susceptible Enterobacteriaceae assessed as intermediate isolate by broth microdilution method; assay type: functional
Escherichia coli [6] = test: Antimicrobial activity against Non-ESBL Escherichia coli assessed as susceptible isolate by broth microdilution method; assay type: functional
Escherichia coli [7] = test: Antimicrobial activity against ESBL producing Escherichia coli assessed as susceptible isolate by broth microdilution method; assay type: functional
Klebsiella pneumoniae [8] = test: Antimicrobial activity against Klebsiella pneumoniae by broth microdilution method; assay type: functional
Klebsiella pneumoniae [9] = test: Antimicrobial activity against Klebsiella pneumoniae assessed as susceptible isolate by broth microdilution method; assay type: functional
Klebsiella pneumoniae [10] = test: Antimicrobial activity against ESBL producing Klebsiella pneumoniae assessed as susceptible isolate by broth microdilution method; assay type: functional
Klebsiella pneumoniae [11] = test: Antimicrobial activity against ESBL producing Klebsiella pneumoniae assessed as intermediate isolate by broth microdilution method; assay type: functional
Proteus mirabilis [12] = test: Antimicrobial activity against Proteus mirabilis by broth microdilution method; assay type: functional
Proteus mirabilis [13] = test: Antimicrobial activity against Proteus mirabilis assessed as susceptible isolate by broth microdilution method; assay type: functional
Pseudomonas aeruginosa [14] = test: Antimicrobial activity against Pseudomonas aeruginosa isolated from non-ICU patient by broth microdilution method; assay type: functional
Pseudomonas aeruginosa [15] = test: Antimicrobial activity against Pseudomonas aeruginosa isolated from ICU patient by broth microdilution method; assay type: functional
Proteus mirabilis [16] = test: Antimicrobial activity against Non-ESBL Proteus mirabilis assessed as susceptible isolate by broth microdilution method; assay type: functional
Proteus mirabilis [17] = test: Antimicrobial activity against ESBL producing Proteus mirabilis assessed as susceptible isolate by broth microdilution method; assay type: functional
Proteus mirabilis [18] = test: Antimicrobial activity against ESBL producing Proteus mirabilis assessed as intermediate isolate by broth microdilution method; assay type: functional
Enterobacter cloacae [19] = test: Antimicrobial activity against Enterobacter cloacae by broth microdilution method; assay type: functional
Enterobacter cloacae [20] = test: Antimicrobial activity against Enterobacter cloacae with nonderepressed AmpC beta-lactamsae by broth microdilution method; assay type: functional
Enterobacter cloacae [21] = test: Antimicrobial activity against Enterobacter cloacae with derepressed AmpC beta-lactamsae by broth microdilution method; assay type: functional
Enterobacter cloacae [22] = test: Antimicrobial activity against Enterobacter cloacae with nonderepressed AmpC beta-lactamsae assessed as intermediate isolate by broth microdilution method; assay type: functional
Enterobacter cloacae [23] = test: Antimicrobial activity against Enterobacter cloacae with derepressed AmpC beta-lactamsae assessed as intermediate isolate by broth microdilution method; assay type: functional
Citrobacter [24] = test: Antimicrobial activity against Citrobacter by broth microdilution method; assay type: functional
Citrobacter [25] = test: Antimicrobial activity against Citrobacter with derepressed AmpC beta-lactamsae by broth microdilution method; assay type: functional
Citrobacter [26] = test: Antimicrobial activity against Citrobacter assessed as susceptible isolate by broth microdilution method; assay type: functional
Citrobacter [27] = test: Antimicrobial activity against Citrobacter with nonderepressed AmpC beta-lactamsae assessed as susceptible isolate by broth microdilution method; assay type: functional
Citrobacter [28] = test: Antimicrobial activity against Citrobacter with nonderepressed AmpC beta-lactamsae assessed as intermediate isolate by broth microdilution method; assay type: functional
Citrobacter [29] = test: Antimicrobial activity against Citrobacter with derepressed AmpC beta-lactamsae assessed as susceptible isolate by broth microdilution method; assay type: functional
Serratia marcescens [30] = test: Antimicrobial activity against Serratia marcescens by broth microdilution method; assay type: functional
Serratia marcescens [31] = test: Antimicrobial activity against Ceftazidime susceptible Serratia marcescens by broth microdilution method; assay type: functional
Serratia marcescens [32] = test: Antimicrobial activity against Ceftazidime non-susceptible Serratia marcescens by broth microdilution method; assay type: functional
Serratia marcescens [33] = test: Antimicrobial activity against Serratia marcescens assessed as susceptible isolate by broth microdilution method; assay type: functional
Serratia marcescens [34] = test: Antimicrobial activity against Ceftazidime susceptible Serratia marcescens assessed as intermediate isolate by broth microdilution method; assay type: functional
Serratia marcescens [35] = test: Antimicrobial activity against Ceftazidime non-susceptible Serratia marcescens assessed as intermediate isolate by broth microdilution method; assay type: functional
Pseudomonas aeruginosa [36] = test: Antimicrobial activity against Ceftazidime susceptible Pseudomonas aeruginosa by broth microdilution method; assay type: functional
Pseudomonas aeruginosa [37] = test: Antimicrobial activity against imipenem susceptible Pseudomonas aeruginosa by broth microdilution method; assay type: functional
Pseudomonas aeruginosa [38] = test: Antimicrobial activity against imipenem non-susceptible Pseudomonas aeruginosa by broth microdilution method; assay type: functional
Pseudomonas aeruginosa [39] = test: Antimicrobial activity against Ceftazidime susceptible Pseudomonas aeruginosa assessed as susceptible isolate by broth microdilution method; assay type: functional
Pseudomonas aeruginosa [40] = test: Antimicrobial activity against Ceftazidime susceptible Pseudomonas aeruginosa assessed as intermediate isolate by broth microdilution method; assay type: functional
Pseudomonas aeruginosa [41] = test: Antimicrobial activity against Ceftazidime susceptible Pseudomonas aeruginosa assessed as resistant isolate by broth microdilution method; assay type: functional
Pseudomonas aeruginosa [42] = test: Antimicrobial activity against Ceftazidime non-susceptible Pseudomonas aeruginosa assessed as intermediate isolate by broth microdilution method; assay type: functional
Pseudomonas aeruginosa [43] = test: Antimicrobial activity against imipenem susceptible Pseudomonas aeruginosa assessed as susceptible isolate by broth microdilution method; assay type: functional
Pseudomonas aeruginosa [44] = test: Antimicrobial activity against imipenem susceptible Pseudomonas aeruginosa assessed as intermediate isolate by broth microdilution method; assay type: functional
Acinetobacter [45] = test: Antimicrobial activity against Acinetobacter by broth microdilution method; assay type: functional
Acinetobacter [46] = test: Antimicrobial activity against imipenem susceptible Acinetobacter by broth microdilution method; assay type: functional
Acinetobacter [47] = test: Antimicrobial activity against imipenem non-susceptible Acinetobacter by broth microdilution method; assay type: functional
Acinetobacter [48] = test: Antimicrobial activity against Acinetobacter assessed as susceptible isolate by broth microdilution method; assay type: functional
Acinetobacter [49] = test: Antimicrobial activity against imipenem susceptible Acinetobacter assessed as susceptible isolate by broth microdilution method; assay type: functional
Acinetobacter [50] = test: Antimicrobial activity against imipenem non-susceptible Acinetobacter assessed as resistant isolate by broth microdilution method; assay type: functional
Staphylococcus = test: Antimicrobial activity against methicillin-susceptible coagulase-negative Staphylococcus by broth microdilution method; assay type: functional
Streptococcus pneumoniae = test: Antimicrobial activity against penicillin-resistant Streptococcus pneumoniae by broth microdilution method; assay type: functional
Pseudomonas aeruginosa [51] = test: Antimicrobial activity against Pseudomonas aeruginosa isolated from patient by broth microdilution method
Pseudomonas aeruginosa [52] = test: Antimicrobial activity against Pseudomonas aeruginosa isolated from ICU patient assessed as resistant isolate by broth microdilution method

With `C[C@@H](O)[C@H]1C(=O)N2C(C(=O)O)=C(S[C@@H]3CN[C@H](C(=O)N(C)C)C3)[C@H](C)[C@H]12` [MEROPENEM] the MIC50 (Enterobacteriaceae [1]) was 0.06 µg/mL (≈ 0.156 µM), the MIC90 (Enterobacteriaceae [1]) was 0.12 µg/mL (≈ 0.313 µM) and the MIC50 (Enterobacteriaceae [2]) was 0.12 µg/mL (≈ 0.313 µM). For the same compound, the MIC90 (Enterobacteriaceae [2]) was 0.5 µg/mL (≈ 1.3 µM), the Activity (Enterobacteriaceae [3]) was 0% and the Activity (Enterobacteriaceae [4]) was 0.1%. For the same compound, the Activity (Enterobacteriaceae [5]) was 0.7%, the Activity (Escherichia coli [6]) was 100% and the Activity (Escherichia coli [7]) was 100%. It also gave an MIC50 (Klebsiella pneumoniae [8]) of 0.06 µg/mL (≈ 0.156 µM), an MIC90 (Klebsiella pneumoniae [8]) of 0.06 µg/mL (≈ 0.156 µM) and an Activity (Klebsiella pneumoniae [9]) of 99.7%. It also gave an Activity (Klebsiella pneumoniae [10]) of 95.5%, an Activity (Klebsiella pneumoniae [11]) of 0% and an MIC50 (Proteus mirabilis [12]) of 0.12 µg/mL (≈ 0.313 µM). For the same compound, the MIC90 (Proteus mirabilis [12]) was 0.25 µg/mL (≈ 0.652 µM), the Activity (Proteus mirabilis [13]) was 100% and the MIC50 (Pseudomonas aeruginosa [14]) was 1 µg/mL (≈ 2.61 µM). For the same compound, the MIC90 (Pseudomonas aeruginosa [14]) was 16 µg/mL (≈ 41.7 µM), the MIC50 (Pseudomonas aeruginosa [15]) was 1 µg/mL (≈ 2.61 µM) and the MIC90 (Pseudomonas aeruginosa [15]) was 32 µg/mL (≈ 83.4 µM). For the same compound, the Activity (Proteus mirabilis [16]) was 100%, the Activity (Proteus mirabilis [17]) was 100% and the Activity (Proteus mirabilis [18]) was 0%. It also gave an MIC50 (Enterobacter cloacae [19]) of 0.06 µg/mL (≈ 0.156 µM), an MIC90 (Enterobacter cloacae [19]) of 0.25 µg/mL (≈ 0.652 µM) and an MIC50 (Enterobacter cloacae [20]) of 0.06 µg/mL (≈ 0.156 µM). It also gave an MIC90 (Enterobacter cloacae [20]) of 0.12 µg/mL (≈ 0.313 µM), an MIC50 (Enterobacter cloacae [21]) of 0.25 µg/mL (≈ 0.652 µM) and an MIC90 (Enterobacter cloacae [21]) of 0.5 µg/mL (≈ 1.3 µM). It also gave an Activity (Enterobacter cloacae [22]) of 0.5%, an Activity (Enterobacter cloacae [23]) of 0% and an MIC50 (Citrobacter [24]) of 0.06 µg/mL (≈ 0.156 µM). For the same compound, the MIC90 (Citrobacter [24]) was 0.12 µg/mL (≈ 0.313 µM), the MIC50 (Citrobacter [25]) was 0.12 µg/mL (≈ 0.313 µM) and the MIC90 (Citrobacter [25]) was 0.25 µg/mL (≈ 0.652 µM). For the same compound, the Activity (Citrobacter [26]) was 100%, the Activity (Citrobacter [27]) was 100% and the Activity (Citrobacter [28]) was 0%. For the same compound, the Activity (Citrobacter [29]) was 100%, the MIC50 (Serratia marcescens [30]) was 0.12 µg/mL (≈ 0.313 µM) and the MIC90 (Serratia marcescens [30]) was 0.25 µg/mL (≈ 0.652 µM). For the same compound, the MIC50 (Serratia marcescens [31]) was 0.12 µg/mL (≈ 0.313 µM), the MIC90 (Serratia marcescens [31]) was 0.25 µg/mL (≈ 0.652 µM) and the MIC50 (Serratia marcescens [32]) was 0.25 µg/mL (≈ 0.652 µM). It also gave an MIC90 (Serratia marcescens [32]) of 0.25 µg/mL (≈ 0.652 µM), an Activity (Serratia marcescens [33]) of 99.2% and an Activity (Serratia marcescens [34]) of 0%. It also gave an Activity (Serratia marcescens [35]) of 0%, an MIC50 (Pseudomonas aeruginosa [36]) of 1 µg/mL (≈ 2.61 µM) and an MIC90 (Pseudomonas aeruginosa [36]) of 8 µg/mL (≈ 20.9 µM). The MIC50 (Pseudomonas aeruginosa [37]) was 0.5 µg/mL (≈ 1.3 µM), the MIC90 (Pseudomonas aeruginosa [37]) was 2 µg/mL (≈ 5.22 µM) and the MIC50 (Pseudomonas aeruginosa [38]) was 8 µg/mL (≈ 20.9 µM). The MIC90 (Pseudomonas aeruginosa [38]) was 32 µg/mL (≈ 83.4 µM), the Activity (Pseudomonas aeruginosa [39]) was 88.8% and the Activity (Pseudomonas aeruginosa [40]) was 4.7%. For the same compound, the Activity (Pseudomonas aeruginosa [41]) was 6.5%, the Activity (Pseudomonas aeruginosa [42]) was 3.6% and the Activity (Pseudomonas aeruginosa [43]) was 98.5%. The Activity (Pseudomonas aeruginosa [44]) was 0.7%, the MIC50 (Acinetobacter [45]) was 1 µg/mL (≈ 2.61 µM) and the MIC90 (Acinetobacter [45]) was > 32 µg/mL. For the same compound, the MIC50 (Acinetobacter [46]) was 1 µg/mL (≈ 2.61 µM), the MIC90 (Acinetobacter [46]) was 4 µg/mL (≈ 10.4 µM) and the MIC50 (Acinetobacter [47]) was > 32 µg/mL. The MIC90 (Acinetobacter [47]) was > 32 µg/mL, the Activity (Acinetobacter [48]) was 80.6% and the Activity (Acinetobacter [49]) was 97.9%. For the same compound, the Activity (Acinetobacter [50]) was 100%, the MIC50 (Staphylococcus) was 0.12 µg/mL (≈ 0.313 µM) and the MIC50 (Staphylococcus; Staphylococcus, read-out: MIC50) was 0.06 µg/mL (≈ 0.156 µM). The MIC50 (Streptococcus pneumoniae) was 1 µg/mL (≈ 2.61 µM), the MIC50 (Streptococcus pneumoniae; Streptococcus pneumoniae, read-out: MIC50) was 1 µg/mL (≈ 2.61 µM) and the Activity (Pseudomonas aeruginosa [51]) was 3.7%. It also gave an Activity (Pseudomonas aeruginosa [52]) of 18%.
